Our source for the EC50 values is patent publication US9624245B2, “Macrocyclic compounds as HCV entry inhibitors” (priority 2013, dated 2017).

Structures are written as SMILES. Read-outs that look alike come from different tables or passages of the source.

For this assay, the system named is HCV pseudoparticles, genotype 1a HCV E1 and E2 envelope (H77C isolate). Description: HCV pseudoparticle infection assay (luciferase reporter, Huh7 cells). Format: cell-based, HCV genotype 1a (H77C). Conditions: Hepatitis C virus, Huh-7, 48 h. Background: Reporter assays use an easily measured gene product as a stand-in for the process of interest.
Setting [1] is: read-out: EC50 (nM) 1a (H77C), class symbol, HCV pseudoparticle entry into Huh7 cells, luciferase measured 2 days after infection.
The mark [2] stands for this setting: read-out: EC50 (nM) 1a (H77C), HCV pseudoparticle entry into Huh7 cells, luciferase measured 2 days after infection, average of duplicates.

As for `C[C@H]1CNCC2(CNC(=O)c3ccc(cc3)Nc3nc(nc(OCC(F)(F)F)n3)NCc3ccc(cc3)OC1)COC2` [Example 6002], the EC50 under setting [1] was 10 to 1000 nM.

Regarding `CC1(C)CNC(=O)C(=O)Nc2ccc(cc2)OCCOc2ccc(cc2)CNc2nc(nc(OCC(F)(F)F)n2)Nc2ccc(cc2)C(=O)NC1` [Example 4003], the EC50 was 23.6 nM under setting [2] and 10 to 1000 nM under setting [1].

Take `C[C@@H]1COc2ccc(cc2)CNc2nc(nc(OCC(F)(F)F)n2)Nc2ccc(cc2)C(=O)N2CC3CCN(CC3C2)C1` (stereo partly drawn) [Example 3002]: the EC50 is, setting by setting: under setting [2], 116 nM; under setting [1], 10 to 1000 nM.

For `C[C@H]1CNC2C3CN(CC32)C(=O)c2ccc(cc2)Nc2nc(nc(OCC(F)(F)F)n2)NCc2ccc(cc2)OC1` [Example 3001], the EC50 under setting [1] was in the range of 10 to 1000 nM.

`CC1(C)CNC(=O)C(=O)Nc2ccc(cc2)OC/C=C/COc2ccc(cc2)CNc2nc(nc(OCC(F)(F)F)n2)Nc2ccc(cc2)C(=O)NC1` [Example 4004]: the EC50 under setting [1] is 10 to 1000 nM.

As for `C=C1CNCC2CN(C2)C(=O)c2ccc(cc2)Nc2nc(nc(OCC(F)(F)F)n2)NCc2ccc(cc2)OC1` [Example 2001], under setting [1], the EC50 lay within 0.01 to 10 nM.

Turning to `C[C@@H]1COc2ccc(cc2)CNc2nc(nc(OCC(F)(F)F)n2)Nc2ccc(cc2)C(=O)N2CC3(C)CN(C1)CC(C)(C2)C3=O` [Example 3003], the EC50 was 34.3 nM under setting [2] and 10 to 1000 nM under setting [1].

With `CC1(C)CNCC2(COC2)COc2ccc(cc2)CNc2nc(nc(OCC(F)(F)F)n2)Nc2ccc(cc2)C(=O)NC1` [Example 5001], the half-maximal effective concentration (EC50) was 0.796 nM under setting [2] and 0.01 to 10 nM under setting [1].

In the case of `C=C1COc2ccc(cc2)CNc2nc(nc(OCC(F)(F)F)n2)Nc2ccc(cc2)C(=O)N2CC3CN(C1)CC3C2` [Example 2004], under setting [1], the EC50 was 10 to 1000 nM.

In the case of `CC1(C)CNC(=O)C(=O)Nc2ccc(cc2)OCCCOc2ccc(cc2)CNc2nc(nc(OCC(F)(F)F)n2)Nc2ccc(cc2)C(=O)NC1` [Example 4002], under setting [1], the EC50 lay within 0.01 to 10 nM.

As for `C[C@@H]1CNCC2(CNC(=O)c3ccc(cc3)Nc3nc(nc(OCC(F)(F)F)n3)NCc3ccc(cc3)OC1)COC2` [Example 6004], the EC50 under setting [1] was in the range of 10 to 1000 nM.

In the case of `O=C1NCCCNCC2(COC2)COc2ccc(cc2)CNc2nc(nc(OCC(F)(F)F)n2)Nc2ccc1cc2` [Example 6003], the EC50 under setting [1] was 0.01 to 10 nM.

As for `CC1(C)CNC(=O)C(=O)Nc2ccc(cc2)OCCCCOc2ccc(cc2)CNc2nc(nc(OCC(F)(F)F)n2)Nc2ccc(cc2)C(=O)NC1` [Example 4001], the EC50 under setting [1] fell in the range of 10 to 1000 nM.

For `C=C1COc2ccc(cc2)CNc2nc(nc(OCC(F)(F)F)n2)Nc2ccc(cc2)C(=O)N2CCCN(CC2)C1` [Example 2002], the EC50 under setting [1] lay in the range of 10 to 1000 nM.

`CC1(C)CNC(=O)C(=O)Nc2ccc(cc2)OC/C=C\COc2ccc(cc2)CNc2nc(nc(OCC(F)(F)F)n2)Nc2ccc(cc2)C(=O)NC1` [Example 4005]: the EC50 under setting [1] is 10 to 1000 nM.

On to `O=C1c2ccc(cc2)Nc2nc(nc(OCC(F)(F)F)n2)NCc2ccc(cc2)OCCCN2CCCNCCCN1CCC2` [Example 1002], for which the EC50 is, setting by setting: under setting [2], 5.32 nM; under setting [1], 0.01 to 10 nM.

For the compound `O=C1NCC2(CC2)CNCC2(COC2)COc2ccc(cc2)CNc2nc(nc(OCC(F)(F)F)n2)Nc2ccc1cc2` [Example 6005], under setting [1], the EC50 is 0.01 to 10 nM.

With `O=C1c2ccc(cc2)Nc2nc(nc(OCC(F)(F)F)n2)NCc2ccc(cc2)OCCCN2CCC3(CCN1C3)C2` (stereo not drawn) [Example 1001], the EC50 is 160 nM under setting [2] and 10 to 1000 nM under setting [1].

As for `O=C1NCC2(CNCCCOc3ccc(cc3)CNc3nc(nc(OCC(F)(F)F)n3)Nc3ccc1cc3)COC2` [Example 6001], the EC50 under setting [1] lay in the range of 0.01 to 10 nM.

In the case of `C=C1COc2ccc(cc2)CNc2nc(nc(OCC(F)(F)F)n2)Nc2ccc(cc2)C(=O)N2CC3(CN(C1)C3)C2` [Example 2003], the EC50 reads like this: under setting [2], 3.08 nM; under setting [1], 0.01 to 10 nM.

One may read the EC50 as the concentration giving half of the maximal effect.
